Source: patent publication EP0554004A2, “Cephem compounds and antibacterial agents” (KATAYAMA SEIYAKUSYO CO. Ltd., priority 1992, dated 1993)

Assays:
S. aureus Smith = test: MIC against standard strains (Test Example 3); type: cell-based; conditions: Staphylococcus aureus; S. aureus Smith (Test Example 3); read-out: MIC
Procedure: (§1) By using each test strain cultured overnight at 37°C in a Muller-Hinton broth, there was prepared a bacterial solution with a bacterial cell population of 1 x 10^6 CFU/mi of the same bouillon. The bacterial solution was inoculated into the Muller-Hinton agar media each containing respectively one test agent and, after overnight incubation at 37°C, the minimum concentration that inhibited growth of the bacteria was determined and shown as MIC also in Table 1.
(§2) The minimum growth inhibitory concentration was determined for each of the 21 standard strains shown in Table 3, according to the same method as used in Test Example 1.
(§3) In the test, FMOX (flomoxef), CTM (cefotiam) and CEZ (cefazolin) were used as control agents.

S. aureus 195 = test: MIC against standard strains (Test Example 3); type: cell-based; conditions: Staphylococcus aureus; S. aureus 195 (MRSA) (Test Example 3); read-out: MIC
Procedure: as §1, §2, §3

E. cloacae ATCC13407 = test: MIC against standard strains (Test Example 3); type: cell-based; conditions: Enterobacter cloacae; E. cloacae ATCC13407 (Test Example 3); read-out: MIC
Procedure: as §1, §2, §3

S. marcescens IAM1184 = test: MIC against standard strains (Test Example 3); type: cell-based; conditions: Serratia marcescens; S. marcescens IAM1184 (Test Example 3); read-out: MIC
Procedure: as §1, §2, §3

A. faecalis ATCC3750 = test: MIC against standard strains (Test Example 3); type: cell-based; conditions: Alcaligenes faecalis; A. faecalis ATCC3750 (Test Example 3); read-out: MIC
Procedure: as §1, §2, §3

C. freundii ATCC8090 = test: MIC against standard strains (Test Example 3); type: cell-based; conditions: Citrobacter freundii; C. freundii ATCC8090 (Test Example 3); read-out: MIC
Procedure: as §1, §2, §3

K. pneumoniae No. 42 = test: MIC against standard strains (Test Example 3); type: cell-based; conditions: Klebsiella pneumoniae; K. pneumoniae No. 42 (Test Example 3); read-out: MIC
Procedure: as §1, §2, §3

B. subtilis ATCC6633 = test: MIC against standard strains (Test Example 3); type: cell-based; conditions: Bacillus subtilis; B. subtilis ATCC6633 (Test Example 3); read-out: MIC
Procedure: as §1, §2, §3

K. pneumoniae IFO3317 = test: MIC against standard strains (Test Example 3); type: cell-based; conditions: Klebsiella pneumoniae; K. pneumoniae IFO3317 (Test Example 3); read-out: MIC
Procedure: as §1, §2, §3

E. coli NIHJ JC-2 = test: MIC against standard strains (Test Example 3); type: cell-based; conditions: Escherichia coli, NIHJJC2; E. coli NIHJ JC-2 (Test Example 3); read-out: MIC
Procedure: as §1, §2, §3

E. coli CSH2 (RK1) = test: MIC against standard strains (Test Example 3); type: cell-based; conditions: Escherichia coli
Procedure: as §1, §2, §3

P. vulugaris OX-19 = test: MIC against standard strains (Test Example 3); type: cell-based; conditions: P. vulugaris OX-19 (Test Example 3); read-out: MIC
Procedure: as §1, §2, §3

S. aureus 209p JC-1 = test: MIC against standard strains (Test Example 3); type: cell-based; conditions: Staphylococcus aureus; S. aureus 209p JC-1 (Test Example 3); read-out: MIC
Procedure: as §1, §2, §3

P. aeruginosa NCTC10490 = test: MIC against standard strains (Test Example 3); type: cell-based; conditions: Pseudomonas aeruginosa; P. aeruginosa NCTC10490 (Test Example 3); read-out: MIC
Procedure: as §1, §2, §3

M. Morganii IFO3848 = test: MIC against standard strains (Test Example 3); type: cell-based; conditions: Morganella morganii; M. Morganii IFO3848 (Test Example 3); read-out: MIC
Procedure: as §1, §2, §3

M. luteus ATCC 9341 = test: MIC against standard strains (Test Example 3); type: cell-based; conditions: Micrococcus luteus, ATCC9341; M. luteus ATCC 9341 (Test Example 3); read-out: MIC
Procedure: as §1, §2, §3

E. coli CSH2 (RE45) = test: MIC against standard strains (Test Example 3); type: cell-based; conditions: Escherichia coli
Procedure: as §1, §2, §3

S. aureus 167 = test: MIC against standard strains (Test Example 3); type: cell-based; conditions: Staphylococcus aureus; S. aureus 167 (MRSA) (Test Example 3); read-out: MIC
Procedure: as §1, §2, §3

A. calcoaceticos T59 = test: MIC against standard strains (Test Example 3); type: cell-based; conditions: A. calcoaceticos T59 (Test Example 3); read-out: MIC
Procedure: as §1, §2, §3

S. epidemidis IAM1296 = test: MIC against standard strains (Test Example 3); type: cell-based; conditions: S. epidemidis IAM1296 (Test Example 3); read-out: MIC
Procedure: as §1, §2, §3

P. mirabilis IFO3849 = test: MIC against standard strains (Test Example 3); type: cell-based; conditions: Proteus mirabilis; P. mirabilis IFO3849 (Test Example 3); read-out: MIC
Procedure: as §1, §2, §3

clinically isolated MRSA = test: Antibacterial potency against clinically isolated MRSA (Test Example 4); type: cell-based, methicillin-resistant Staphylococcus aureus; conditions: Staphylococcus aureus, 52 strains of clinically isolated MRSA; for MIC50: concentration inhibiting growth of 50% of the strains (Test Example 4), read-out: MIC50; for MIC90: concentration inhibiting growth of 90% of the strains (Test Example 4), read-out: MIC90
Procedure: 52 strains of clinically isolated MRSA were used, and MIC was determined for each of the strains according to the standard method of the Japan Chemotherapical Society as in Test Example 1. The minimum growth inhibitory concentration which inhibited growth of 50% of the strains tested was expressed as MIC50 (µg/ml), and the minimum growth inhibitory concentration which inhibited growth of 90% of the strains was expressed as MIC90 (µg/ml).
MIC 50 and MIC 90 were determined for each of the 52 strains of clinically isolated MRSA according to the same method as used in Test Example 2.
VCM (vancomycin) was used as control agent.

For Cc1nc(-c2cc[n+](CC3=C(C(=O)[O-])N4C(=O)[C@@H](NC(=O)/C(=N\O)c5csc(N)n5)[C@H]4SC3)cc2)cs1 [Compound (13), 7β-[2-(2-aminothiazol-4-yl)-2-syn-hydroxyiminoacetamido]-3-[[4-(2-methylthiazol-4-yl)-1-pyridinio]methyl]-3-cephem-4-carboxylic acid chloride], the MIC (S. aureus Smith) was 0.39 µg/mL, the MIC (S. aureus 195) was 3.13 µg/mL and the MIC (E. cloacae ATCC13407) was 0.78 µg/mL. The MIC (S. marcescens IAM1184) was 0.39 µg/mL, the MIC (A. faecalis ATCC3750) was 1.56 µg/mL and the MIC (C. freundii ATCC8090) was 0.2 µg/mL. The MIC (K. pneumoniae No. 42) was 0.78 µg/mL, the MIC (B. subtilis ATCC6633) was 0.2 µg/mL and the MIC (K. pneumoniae IFO3317) was 0.1 µg/mL. The MIC (E. coli NIHJ JC-2) was 0.2 µg/mL, the MIC (E. coli CSH2 (RK1)) was 0.2 µg/mL and the MIC (P. vulugaris OX-19) was 0.2 µg/mL. It also gave an MIC (S. aureus 209p JC-1) of 0.2 µg/mL, an MIC (P. aeruginosa NCTC10490) of 12.5 µg/mL and an MIC (M. Morganii IFO3848) of 0.05 µg/mL. The MIC (M. luteus ATCC 9341) was 0.05 µg/mL, the MIC (E. coli CSH2 (RE45)) was 0.2 µg/mL and the MIC (S. aureus 167) was 6.25 µg/mL. The MIC (A. calcoaceticos T59) was 50 µg/mL, the MIC (S. epidemidis IAM1296) was 0.2 µg/mL and the MIC (P. mirabilis IFO3849) was 0.39 µg/mL. It also gave an MIC50 (clinically isolated MRSA) of 2.21 µg/mL and an MIC90 (clinically isolated MRSA) of 5.51 µg/mL.
Cc1nc(-c2ccc[n+](CC3=C(C(=O)[O-])N4C(=O)[C@@H](NC(=O)/C(=N\O)c5csc(N)n5)[C@H]4SC3)c2)cs1 [Compound (11), 7β-[2-(2-aminothiazol-4-yl)-2-syn-hydroxyiminoacetamido]-3-[[3-(2-methylthiazol-4-yl)-I-pyridinio]methyl]-3-cephem-4-carboxylic acid chloride] showed an MIC (S. aureus Smith) of 0.39 µg/mL, an MIC (S. aureus 195) of 1.56 µg/mL and an MIC (E. cloacae ATCC13407) of 3.13 µg/mL. It also gave an MIC (S. marcescens IAM1184) of 0.39 µg/mL, an MIC (A. faecalis ATCC3750) of 3.13 µg/mL and an MIC (C. freundii ATCC8090) of 0.39 µg/mL. The MIC (K. pneumoniae No. 42) was 0.78 µg/mL, the MIC (B. subtilis ATCC6633) was 0.2 µg/mL and the MIC (K. pneumoniae IFO3317) was 0.2 µg/mL. It also gave an MIC (E. coli NIHJ JC-2) of 0.39 µg/mL, an MIC (E. coli CSH2 (RK1)) of 0.78 µg/mL and an MIC (P. vulugaris OX-19) of 0.2 µg/mL. The MIC (S. aureus 209p JC-1) was 0.2 µg/mL, the MIC (P. aeruginosa NCTC10490) was 6.25 µg/mL and the MIC (M. Morganii IFO3848) was 0.1 µg/mL. The MIC (M. luteus ATCC 9341) was 0.05 µg/mL, the MIC (E. coli CSH2 (RE45)) was 0.39 µg/mL and the MIC (S. aureus 167) was 3.13 µg/mL. The MIC (A. calcoaceticos T59) was 25 µg/mL, the MIC (S. epidemidis IAM1296) was 0.1 µg/mL and the MIC (P. mirabilis IFO3849) was 0.78 µg/mL. The MIC50 (clinically isolated MRSA) was 1.85 µg/mL and the MIC90 (clinically isolated MRSA) was 3.04 µg/mL.
